Assay results reported in patent publication US12215067B2, “Chemical compounds targeting the eye and use thereof in the treatment of eye diseases” (BIOPHYTIS, priority 2019, dated 2025).
Read-outs that look alike come from different tables or passages of the source.

How the values were obtained:
[1] = tested on: primary cultures of RPE of adult pigs; assay: In vitro photoprotection of RPE cells illuminated with blue light in the presence of A2E; assay type: cell-based, pig; settings: Sus scrofa, RPE, A2E 30 μM, survival 24 h after illumination; for viability at 5 µM: 5 μM compound; for viability at 10 µM: 10 μM compound; for viability at 20 µM: 20 μM compound
Excerpt: In addition to better distribution in the target-tissue, selecting new compounds must also be based on good photo-protective activity that limits the loss of the cells of the RPE and thus reducing the retinal degeneration observed during the AMD and other degenerative diseases such as Retinitis pigmentosa and Stargardt's disease. At the cellular level, on cultures of cells the RPE coming from pig retina, Fontaine et al. (2016) have shown that a treatment with norbixin (BIO201) protects the cells of the RPE against apoptosis following an illumination in the presence of A2E (80% survival 24 h after exposure). This same screening test according to the percentage of photoprotection was used so as to determine its modulation by and the chemical compounds derived from norbixin (C) object of the present invention in comparison with the photo-protective effect of norbixin and characterize these modulations from a statical standpoint.
The test in vitro described hereinabove and intended to study the photo-protective effect of norbixin was used so as to quantify the photo-protective effects of the various chemical compounds derived from norbixin (C) on the cells of the RPE illuminated with blue light in the presence of A2E (FIG. 3). The photo-protective effect of the molecules was evaluated in a phototoxicity cellular model induced by treatment by A2E followed by an illumination with blue light. The term “blue radiation” means the radiation corresponding to the blue band of the visible light spectrum, i.e. of a wavelength comprised between 435 and 490 nm. This model uses primary cultures of RPE of adult pigs. The cell survival is quantified thanks to a test of cellular viability. At −48 h the compounds to be tested (in solution at 5 mM in the DMSO) are added to obtain the final concentrations of 1 to 20 μM) then at −19 h of the A2E (final concentration 30 μM) and the cells (time 0 h) are illuminated. 24 h after the survival of the cells is measured. The acquisition of images, as well as the processing thereof, are carried out using a fluorescence microscope controlled by the Metamorph software and a dedicated quantification program. The experiments are conducted on a 96-well microplate in quadruplicate and the experiment is reproduced at least four times. The results are expressed in the form of a ratio representing the number of living cells in the wells treated by the molecules to be tested, divided by the number of living cells in the controlled wells (treated by the dilution medium without A2E). This test made it possible hereinabove to reveal the photo-protective activity of norbixin (Fontaine et al. 2016).

[2] = Pharmacokinetic study via oral administration in mice, plasma concentrations; assay type: in vivo, mice C57BL/6
Description: (§1) The pharmacokinetic study of the chemical compounds (C) following the oral administration thereof was conducted using mice C57BL/6 (January, 53940 The Genest Saint Isle, France). The chemical compounds derived from norbixin (C) were administered at a dose of 50 mg/kg of body weight. After administration, the blood was sampled at the tail at t=0.25 h; 0.5 h; 1 h; 3 h; 6 h and 8 h. The blood samples were centrifuged and the plasmas taken. The dosage of the plasma samples made it possible to determine pharmacokinetic parameters, namely Cmax, which corresponds to the maximum concentration observed after the administration of the molecule, Tmax which is the time required to reach maximum concentration after administration of the molecule and the AUC: the area under the curve which corresponds to the plasma exposure (FIG. 2).
(§2) The LC-MSMS analysis is carried out with a HPLC 1200 Infinity chain (Agilent Technologies, Santa-Clara, United States), a UV detector and a mass spectrometer QQQ6420 (Agilent Technologies Santa-Clara, United States). The injection volume is 5 μL. The chemical compounds C are eluted on an inverse phase column C18 (2.1*50 mm, particles 3 μm; Ace-C18-Excel, AIT) with a gradient of acetonitrile and water (containing 0.1% formic acid) and a flow rate of 0.3 mL/min. The conditions of the gradient can change according to the chemical compound C analyzed. The UV detector analyzes at 460 nm and the mass spectrometer analyzed in Mode MRM—Positive.
(§3) Table 2 discloses the pharmacokinetic results of the chemical compounds C following the administration p.o. 50 mg/kg in D-α-Tocopheryl polyethylene glycol 1000 succinate (VitE-TPGS) 20% in a sodium bicarbonate buffer (0.1M).

[3] = Pharmacokinetic study via oral administration in mice, ocular concentrations; assay type: in vivo, mice C57BL/6; settings: for Tmax: C57BL/6, mouse, eye, po; for Tmax / Eye CMax: mice, p.o. 50 mg/kg in VitE-TPGS 20% in sodium bicarbonate buffer (0.1M); for Eye Exposure 50 mg/kg p.o. AUC: Table 3, repeats the eye exposure of Table 2
Description: as §1
In parallel, the ocular concentrations of the chemical compounds derived from norbixin (C) were dosed in the following way (FIG. 1): both eyes of each mouse were taken in Precellys tubes and stored at −80° C. until the time of dosing. The eyes are then ground in the Precellys tubes with a bench homogenizer, Fast-prep (Fischer Scientific, Hampton, United States) in a mixture of organic solvents, in a first step with 500 μL of chloroform/methanol (1/1, v/v) then 500 μL of chloroform/dichloromethane (1/1, v/v). The supernatants are recovered at each step and transferred to a 96-well plate of 2 mL.
For the quantification of the chemical compounds C, a calibration curve is carried out with 8 standards (5 to 5,000 ng/mL) in the same organic solvent mixtures and transferred (100 μL) to the 96-well plate of 2 mL.
The supernatants and standards are evaporated in a EZ2 (Genevac, Ipswich, United Kingdom), without heating, then taken with 100 μL of DMSO/methanol (20:80, v/v) before being transferred to a 96-well plate of 200 μL.
as §2, §3

[4] = C57BL/6, mouse, in vivo, po, 50 mg/kg

SMILES	viability at 5 µM [1]	viability at 10 µM [1]	viability at 20 µM [1]	Cmax [2, 4]	Plasma Exposure [2, 4]	Tmax [2, 4]	Tmax [3]	Eye Exposure 50 mg/kg p.o. AUC [3]	Eye CMax [3]	Cmax ([2]; C57BL/6, mouse, in vivo, po, mice, p.o. 50 mg/kg in VitE-TPGS 20% in sodium bicarbonate buffer (0.1M), read-out: Plasma CMax)	Tmax ([2]; C57BL/6, mouse, in vivo, po, mice, p.o. 50 mg/kg in VitE-TPGS 20% in sodium bicarbonate buffer (0.1M), read-out: Plasma TMax)	Plasma Exposure ([2]; mice, p.o. 50 mg/kg in VitE-TPGS 20% in sodium bicarbonate buffer (0.1M), area under the curve)
CC(=C/C=C/C(C)=C/C=C/C=C(C)/C=C/C=C(C)/C=C/C(=O)N1CCC(O)C1)/C=C/C(=O)O (stereo in doubt) [C9, 1-[(S)-3-hydroxypyrrolidinamido](2E,4E,6E,8E,10E,12E,14E,16Z,18E)-4,8,13,17-tetramethylicosa-2,4,6,8,10,12,14,16,18-nonaenedioate]	22.1%	32%	63.7%	37900 ng/mL	342.68 µg·h/mL	60 min	60 min	452.0 ng · h/eye	53.1 ng/eye			
CC(=C/C=C/C(C)=C/C=C/C=C(C)/C=C/C=C(C)/C=C/C(=O)N1CCC(O)C1)/C=C/C(=O)O (stereo in doubt) [C11, 1-[(R)-3-hydroxypyrrolidinamido](2E,4E,6E,8E,10E,12E,14E,16Z,18E)-4,8,13,17-tetramethylicosa-2,4,6,8,10,12,14,16,18-nonaenedioate]	21.1%	39.3%	63.4%	35900 ng/mL	190 µg·h/mL	60 min	60 min	238.4 ng · h/eye	47.7 ng/eye			
COCCNC(=O)/C=C/C(C)=C/C=C/C(C)=C/C=C/C=C(C)/C=C/C=C(C)\C=C\C(=O)O [C1, 1-[2-methoxyethanamido](2E,4E,6E,8E,10E,12E,14E,16Z,18E)-4,8,13,17-tetramethylicosa-2,4,6,8,10,12,14,16,18-nonaenedioate]	55%	67.7%	77.8%	18700 ng/mL	52.66 µg·h/mL	30 min	30 min	26.6 ng · h/eye	10.7 ng/eye			
CC(=C/C=C/C(C)=C/C=C/C=C(C)/C=C/C=C(C)/C=C/C(=O)N1CCOCC1)/C=C/C(=O)O [C2, 1-[1,4-oxazinamido](2E,4E,6E,8E,10E,12E,14E,16Z,18E)-4,8,13,17-tetramethylicosa-2,4,6,8,10,12,14,16,18-nonaenedioate]	33.9%	22.3%	49.1%				30 min	186.5 ng · h/eye	41 ng/eye	34000 ng/mL	30 min	176.2 µg·h/mL
CC(=C/C=C/C(C)=C/C=C/C=C(C)/C=C/C=C(C)/C=C/C(=O)N1CCCCC1)/C=C/C(=O)O [C3, 1-[piperidinamido](2E,4E,6E,8E,10E,12E,14E,16Z,18E)-4,8,13,17-tetramethylicosa-2,4,6,8,10,12,14,16,18-nonaenedioate]	11.3%	68.1%	45.1%	4050 ng/mL	10.37 µg·h/mL	30 min	30 min	19.1 ng · h/eye	5.1 ng/eye			
CC(=C/C=C/C(C)=C/C=C/C=C(C)/C=C/C=C(C)/C=C/C(=O)NCCO)/C=C/C(=O)O [C4, 1-[2-hydroxyethanamido](2E,4E,6E,8E,10E,12E,14E,16Z,18E)-4,8,13,17-tetramethylicosa-2,4,6,8,10,12,14,16,18-nonaenedioate]	16.4%	36%	67.2%	57100 ng/mL	208.6 µg·h/mL	60 min	30 min	30.0 ng · h/eye	10.2 ng/eye			
CC(=C/C=C/C(C)=C/C=C/C=C(C)/C=C/C=C(C)/C=C/C(=O)N1CCCOCC1)/C=C/C(=O)O [C5, 1[1,4-oxazepanamido](2E,4E,6E,8E,10E,12E,14E,16Z,18E)-4,8,13,17-tetramethylicosa-2,4,6,8,10,12,14,16,18-nonaenedioate]	11.3%	25.6%	36%	37700 ng/mL	299.9 µg·h/mL	60 min	30 min	188.7 ng · h/eye	31.4 ng/eye			
CC(=C/C=C/C(C)=C/C=C/C=C(C)/C=C/C=C(C)/C=C/C(=O)N1CCSCC1)/C=C/C(=O)O [C6]		60.6%	19.1%	3950 ng/mL	10.81 µg·h/mL	30 min	30 min	23.1 ng · h/eye	3.9 ng/eye			
CC(=C/C=C/C(C)=C/C=C/C=C(C)/C=C/C=C(C)/C=C/C(=O)N1CCCC1)/C=C/C(=O)O [C7, 1-pyrrolidinamido-(2E,4E,6E,8E,10E,12E,14E,16Z,18E)-4,8,13,17-tetramethylicosa-2,4,6,8,10,12,14,16,18-nonaenedioate]	5.2%	52.8%		6890 ng/mL	17.29 µg·h/mL	30 min	30 min	18.5 ng · h/eye	7 ng/eye			
CC(=C/C=C/C(C)=C/C=C/C=C(C)/C=C/C=C(C)/C=C/C(=O)NCCCN1CCOCC1)/C=C/C(=O)O [C8]	28.6%	33.4%	75.2%	59800 ng/mL	173.74 µg·h/mL	30 min	60 min	472.4 ng · h/eye	56.8 ng/eye			
